Results: the supplement of paper PMC10307832

Key:
Assay in all cases: relative viability (nuclei count vs DMSO), 5 days (fraction); higher = more cells survive
Pictilisib + Dasatinib = compound: CS(=O)(=O)N1CCN(Cc2cc3nc(-c4cccc5[nH]ncc45)nc(N4CCOCC4)c3s2)CC1 [Pictilisib] + Cc1nc(Nc2ncc(C(=O)Nc3c(C)cccc3Cl)s2)cc(N2CCN(CCO)CC2)n1 [Dasatinib] (partner 0.075 µM)
Method in brief: (§1)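 After 5 days of treatment, lung cancer cells in 1536-well plates were fixed and stained in a single step (final 0.05% Triton X-100, 1% formaldehyde, 1 ug/ml Hoechst) and their nuclei counted on 4× images. Treatment had been applied by pin tool the day after seeding as one drug alone or as a fixed anchor-drug dose with five library-drug doses (not always all listed) in √10 steps. Relative viability is the nuclei count of treated wells divided by that of vehicle wells, and values are medians of duplicate plates.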

Pictilisib + Olaparib = compound: CS(=O)(=O)N1CCN(Cc2cc3nc(-c4cccc5[nH]ncc45)nc(N4CCOCC4)c3s2)CC1 [Pictilisib] + O=C(c1cc(Cc2n[nH]c(=O)c3ccccc23)ccc1F)N1CCN(C(=O)C2CC2)CC1 [Olaparib] (partner 8 µM)
Method in brief: as §1

MK-2206 + Navitoclax = compound: NC1(c2ccc(-c3nc4ccn5c(=O)[nH]nc5c4cc3-c3ccccc3)cc2)CCC1 [MK-2206] + CC1(C)CCC(c2ccc(Cl)cc2)=C(CN2CCN(c3ccc(C(=O)NS(=O)(=O)c4ccc(N[C@H](CCN5CCOCC5)CSc5ccccc5)c(S(=O)(=O)C(F)(F)F)c4)cc3)CC2)C1 [Navitoclax] (partner 0.5 µM)
Method in brief: as §1

MK-2206 + Alpelisib = compound: NC1(c2ccc(-c3nc4ccn5c(=O)[nH]nc5c4cc3-c3ccccc3)cc2)CCC1 [MK-2206] + Cc1nc(NC(=O)N2CCC[C@H]2C(N)=O)sc1-c1ccnc(C(C)(C)C(F)(F)F)c1 [Alpelisib] (partner 2 µM)
Method in brief: as §1

Pictilisib + Lapatinib = compound: CS(=O)(=O)N1CCN(Cc2cc3nc(-c4cccc5[nH]ncc45)nc(N4CCOCC4)c3s2)CC1 [Pictilisib] + CS(=O)(=O)CCNCc1ccc(-c2ccc3ncnc(Nc4ccc(OCc5cccc(F)c5)c(Cl)c4)c3c2)o1 [Lapatinib] (partner 2 µM)
Method in brief: as §1

Cell Line: UMC-11
- relative viability (Pictilisib + Dasatinib; first compound 0.02 µM): 0.449
- relative viability (Pictilisib + Dasatinib; first compound 0.06325 µM): 0.461
- relative viability (Pictilisib + Dasatinib; first compound 0.6325 µM): 0.458
- relative viability (Pictilisib + Dasatinib; first compound 2 µM): 0.515
- relative viability (Pictilisib + Olaparib; first compound 0.02 µM): 0.822
- relative viability (Pictilisib + Olaparib; first compound 0.06325 µM): 0.344
- relative viability (Pictilisib + Olaparib; first compound 0.6325 µM): 0.666
- relative viability (Pictilisib + Olaparib; first compound 2 µM): 0.384
- relative viability (MK-2206 + Navitoclax; first compound 0.01 µM): 0.309
- relative viability (MK-2206 + Navitoclax; first compound 0.03162 µM): 0.327
- relative viability (MK-2206 + Navitoclax; first compound 0.3162 µM): 0.344
- relative viability (MK-2206 + Navitoclax; first compound 1 µM): 0.29
- relative viability (MK-2206 + Alpelisib; first compound 0.01 µM): 1.03
- relative viability (MK-2206 + Alpelisib; first compound 0.03162 µM): 0.908
- relative viability (MK-2206 + Alpelisib; first compound 0.3162 µM): 1.1
- relative viability (MK-2206 + Alpelisib; first compound 1 µM): 0.994
- relative viability (Pictilisib + Lapatinib; first compound 0.02 µM): 1.09
- relative viability (Pictilisib + Lapatinib; first compound 0.06325 µM): 1.21
- relative viability (Pictilisib + Lapatinib; first compound 0.6325 µM): 1.03
- relative viability (Pictilisib + Lapatinib; first compound 2 µM): 0.887
